Activity calls are given as the source filed them.

From ChEMBL document CHEMBL1201862, “PubChem BioAssay data set” (2004) come the findings set out here.

The target in assay [1] is Sphingosine 1-phosphate receptor 1 (Homo sapiens, UniProt P21453). It is filed as functional.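 Note: Tango beta-arrestin reporter U2OS cells stimulated with S1P near its EC80; inhibitor potency meaning antagonism of receptor activation by the natural agonist.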
Assay [2] has as its target Orexin receptor type 2 (Homo sapiens, UniProt O43614). Briefly: Counterscreen assay for antagonists of the orexin 1 receptor (OX1R; HCRTR1): Homogeneous Time Resolved Fluorescence (HTRF)-based cell-based dose response assay for antagonists of the orexin 2 receptor (OX2R; HCRTR2), run by assay provider. It is filed as functional. In general terms: The purpose of a counterscreen is to sort out artefacts and off-target activity.

Assay [3] is described as follows: HEK293T cytotoxicity, dose response, cytotoxicity control for miR-122 modulator project, cell-based, activator set, cherry-pick (AID 720690).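 Note: HEK293T human cells scored for general mammalian cytotoxicity.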 The assay is classed as functional.
The target in assay [4] is T1, Orexin/Hypocretin receptor type 1 (Homo sapiens, UniProt O43613).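 Note: antagonism measured against Orexin-A challenge at about its EC80.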
T1 sequence (O43613 whole entry): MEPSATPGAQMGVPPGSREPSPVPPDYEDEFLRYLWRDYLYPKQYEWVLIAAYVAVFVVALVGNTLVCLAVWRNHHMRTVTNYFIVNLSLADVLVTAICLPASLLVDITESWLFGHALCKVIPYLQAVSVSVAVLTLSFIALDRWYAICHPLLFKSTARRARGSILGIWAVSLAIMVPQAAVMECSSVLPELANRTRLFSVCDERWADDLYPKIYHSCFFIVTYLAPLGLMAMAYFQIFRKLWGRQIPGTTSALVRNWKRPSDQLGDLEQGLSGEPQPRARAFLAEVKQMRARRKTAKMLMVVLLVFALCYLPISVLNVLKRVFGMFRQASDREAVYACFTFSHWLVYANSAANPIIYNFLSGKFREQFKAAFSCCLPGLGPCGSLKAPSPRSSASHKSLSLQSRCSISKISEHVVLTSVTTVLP
Briefly: Homogeneous Time Resolved Fluorescence (HTRF)-based cell-based high throughput dose response assay for antagonists of the orexin 1 receptor (OX1R; HCRTR1). [Related pubchem assays (depositor defined):AID434989, AID435008, AID463079, AID485270, AID492963, AID492964, AID492965, AID493232, AID504717, AID504718]. It is filed as functional. Background: TR-FRET usually uses a lanthanide donor and a delayed reading to cut background.

Assay [5] addresses T2, Alkaline phosphatase, tissue-nonspecific isozyme (Homo sapiens, UniProt P05186).
T2 sequence (P05186 whole entry): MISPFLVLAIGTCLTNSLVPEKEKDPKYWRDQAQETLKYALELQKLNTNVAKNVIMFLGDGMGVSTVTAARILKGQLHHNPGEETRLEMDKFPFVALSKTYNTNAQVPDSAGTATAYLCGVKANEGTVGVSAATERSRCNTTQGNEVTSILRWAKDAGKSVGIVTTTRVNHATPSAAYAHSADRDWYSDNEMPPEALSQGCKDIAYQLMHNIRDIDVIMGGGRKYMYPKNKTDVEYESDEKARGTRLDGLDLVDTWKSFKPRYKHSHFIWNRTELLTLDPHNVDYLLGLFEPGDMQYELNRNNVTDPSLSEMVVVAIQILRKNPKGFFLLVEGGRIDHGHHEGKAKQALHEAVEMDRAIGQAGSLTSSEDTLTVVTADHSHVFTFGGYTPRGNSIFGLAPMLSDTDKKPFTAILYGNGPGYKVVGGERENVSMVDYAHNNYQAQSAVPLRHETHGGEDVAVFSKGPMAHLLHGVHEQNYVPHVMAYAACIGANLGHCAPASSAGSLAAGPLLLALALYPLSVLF
As to the kind of experiment: TNAP enzyme inhibition by screening hits, dose response, selectivity assay for mouse IAP inhibitor project, biochemical, human TNAP, uHTS hits (AID 488906). The assay is classed as functional.

Assay [6] addresses Photoreceptor-specific nuclear receptor (Homo sapiens, UniProt Q9Y5X4). It is filed as functional.
For assay [7], the target named is ORF 73 (Human herpesvirus 8, UniProt O40947). As to the kind of experiment: inhibitors of C-LANA binding to LBS DNA, dose response, biochemical, fluorescence polarization, cherry-picked samples (AID 504725).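 Note: fluorescence polarization of a labeled DNA duplex reporting LANA DNA binding; potency is for inhibitors that block LANA binding to the DNA.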 Further details: species or system Human gammaherpesvirus 8. Background: Fluorescence polarisation rises when a labelled molecule tumbles more slowly, as on binding a larger partner.
ORF 73, sequence (O40947 whole entry): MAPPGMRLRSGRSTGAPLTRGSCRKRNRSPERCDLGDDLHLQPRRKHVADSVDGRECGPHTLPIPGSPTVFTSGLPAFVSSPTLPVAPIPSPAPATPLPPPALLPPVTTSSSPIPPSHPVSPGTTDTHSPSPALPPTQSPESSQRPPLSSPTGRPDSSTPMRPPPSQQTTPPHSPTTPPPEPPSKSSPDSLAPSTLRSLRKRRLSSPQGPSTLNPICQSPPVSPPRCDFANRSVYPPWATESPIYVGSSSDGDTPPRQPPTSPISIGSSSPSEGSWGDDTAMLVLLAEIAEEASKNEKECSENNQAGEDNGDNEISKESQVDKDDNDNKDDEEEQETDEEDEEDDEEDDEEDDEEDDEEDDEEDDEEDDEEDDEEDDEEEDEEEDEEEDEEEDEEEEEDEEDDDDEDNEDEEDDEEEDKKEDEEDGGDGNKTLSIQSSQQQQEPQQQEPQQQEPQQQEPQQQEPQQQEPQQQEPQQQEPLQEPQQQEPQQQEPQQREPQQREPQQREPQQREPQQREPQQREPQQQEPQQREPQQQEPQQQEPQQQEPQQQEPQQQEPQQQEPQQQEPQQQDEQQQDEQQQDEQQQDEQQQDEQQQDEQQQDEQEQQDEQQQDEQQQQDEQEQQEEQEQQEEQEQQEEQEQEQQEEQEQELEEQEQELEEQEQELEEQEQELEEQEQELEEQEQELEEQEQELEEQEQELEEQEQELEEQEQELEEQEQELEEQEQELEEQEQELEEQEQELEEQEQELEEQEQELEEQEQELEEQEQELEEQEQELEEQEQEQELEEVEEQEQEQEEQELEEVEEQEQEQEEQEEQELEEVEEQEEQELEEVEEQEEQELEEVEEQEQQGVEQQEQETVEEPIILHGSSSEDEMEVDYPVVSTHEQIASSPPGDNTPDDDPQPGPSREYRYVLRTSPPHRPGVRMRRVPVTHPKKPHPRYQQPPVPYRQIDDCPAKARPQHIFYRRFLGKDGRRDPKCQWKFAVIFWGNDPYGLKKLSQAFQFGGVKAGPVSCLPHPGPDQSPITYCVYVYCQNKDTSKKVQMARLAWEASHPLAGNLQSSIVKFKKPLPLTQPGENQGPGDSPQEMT

Assay [8] addresses Cyclin-dependent kinase 9 (Homo sapiens, UniProt P50750). It is filed as functional.
In assay [9] the target is Proto-oncogene tyrosine-protein kinase receptor Ret (Homo sapiens, UniProt P07949). The assay is classed as functional.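 Note: measured within a kinome-wide profiling panel, RET as the panel member.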
Proto-oncogene tyrosine-protein kinase receptor Ret, sequence (P07949 whole entry): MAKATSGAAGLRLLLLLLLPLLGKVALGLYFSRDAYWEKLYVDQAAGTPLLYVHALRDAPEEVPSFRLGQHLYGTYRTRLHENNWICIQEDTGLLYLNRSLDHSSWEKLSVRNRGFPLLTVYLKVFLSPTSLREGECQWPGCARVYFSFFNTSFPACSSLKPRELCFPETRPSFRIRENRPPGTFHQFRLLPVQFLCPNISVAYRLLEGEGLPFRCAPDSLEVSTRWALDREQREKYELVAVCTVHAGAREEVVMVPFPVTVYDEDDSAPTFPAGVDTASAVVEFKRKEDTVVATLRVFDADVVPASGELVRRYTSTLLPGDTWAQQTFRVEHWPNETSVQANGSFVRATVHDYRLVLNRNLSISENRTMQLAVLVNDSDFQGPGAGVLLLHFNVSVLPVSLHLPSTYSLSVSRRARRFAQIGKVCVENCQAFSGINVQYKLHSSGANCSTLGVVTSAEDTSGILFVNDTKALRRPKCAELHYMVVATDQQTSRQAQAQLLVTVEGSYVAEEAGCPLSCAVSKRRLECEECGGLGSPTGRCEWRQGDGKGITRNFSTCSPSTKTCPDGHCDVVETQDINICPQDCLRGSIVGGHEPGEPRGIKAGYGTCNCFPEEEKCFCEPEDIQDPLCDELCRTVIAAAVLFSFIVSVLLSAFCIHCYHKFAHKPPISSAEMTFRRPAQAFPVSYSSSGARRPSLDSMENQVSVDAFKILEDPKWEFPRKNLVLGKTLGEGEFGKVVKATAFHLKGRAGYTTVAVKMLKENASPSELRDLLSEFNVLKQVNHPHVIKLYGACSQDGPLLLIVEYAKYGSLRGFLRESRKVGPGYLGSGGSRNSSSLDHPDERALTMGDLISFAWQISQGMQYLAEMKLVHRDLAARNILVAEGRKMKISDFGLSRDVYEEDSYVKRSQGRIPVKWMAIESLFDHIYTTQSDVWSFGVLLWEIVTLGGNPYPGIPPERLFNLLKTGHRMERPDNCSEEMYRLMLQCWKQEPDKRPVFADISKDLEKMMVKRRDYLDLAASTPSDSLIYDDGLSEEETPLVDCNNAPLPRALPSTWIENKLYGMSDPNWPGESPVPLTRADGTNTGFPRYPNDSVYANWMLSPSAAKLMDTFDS
The target of assay [10] is Focal adhesion kinase 1 (Homo sapiens, UniProt Q05397). It is filed as functional.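 Note: measured as one member of a kinome panel.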
Focal adhesion kinase 1, sequence (Q05397 whole entry, the tested form may be a part): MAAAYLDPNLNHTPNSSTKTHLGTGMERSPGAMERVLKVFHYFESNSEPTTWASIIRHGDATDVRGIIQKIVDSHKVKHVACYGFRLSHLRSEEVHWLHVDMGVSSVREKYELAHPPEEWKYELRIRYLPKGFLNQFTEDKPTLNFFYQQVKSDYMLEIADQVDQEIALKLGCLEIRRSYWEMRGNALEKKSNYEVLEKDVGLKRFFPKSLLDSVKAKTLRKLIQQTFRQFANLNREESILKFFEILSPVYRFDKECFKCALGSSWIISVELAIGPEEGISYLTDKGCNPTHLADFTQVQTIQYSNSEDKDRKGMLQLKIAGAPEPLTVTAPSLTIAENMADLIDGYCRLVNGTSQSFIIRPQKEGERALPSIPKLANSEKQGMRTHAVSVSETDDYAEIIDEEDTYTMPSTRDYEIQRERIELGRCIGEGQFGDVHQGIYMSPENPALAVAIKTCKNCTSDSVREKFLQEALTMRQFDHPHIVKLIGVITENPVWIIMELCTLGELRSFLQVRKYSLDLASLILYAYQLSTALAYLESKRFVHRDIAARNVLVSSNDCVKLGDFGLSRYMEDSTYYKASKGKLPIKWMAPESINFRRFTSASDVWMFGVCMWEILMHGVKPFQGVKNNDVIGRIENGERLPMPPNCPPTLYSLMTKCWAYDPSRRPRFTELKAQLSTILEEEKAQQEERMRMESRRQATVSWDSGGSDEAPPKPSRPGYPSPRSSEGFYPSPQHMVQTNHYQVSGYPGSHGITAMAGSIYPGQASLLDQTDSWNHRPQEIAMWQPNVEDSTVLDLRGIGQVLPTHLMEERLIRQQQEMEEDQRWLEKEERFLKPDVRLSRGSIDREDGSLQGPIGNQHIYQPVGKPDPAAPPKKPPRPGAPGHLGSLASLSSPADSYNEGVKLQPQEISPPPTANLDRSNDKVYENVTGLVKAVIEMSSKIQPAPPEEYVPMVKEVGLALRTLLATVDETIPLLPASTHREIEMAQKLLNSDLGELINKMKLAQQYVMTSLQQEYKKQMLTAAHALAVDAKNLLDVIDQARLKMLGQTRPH
The nature of assay [11]: CEM21 lymphoblast cell cytotoxicity, dose response, cytotoxicity control for viral fusion inhibitor project, CellTiter-Glo luminescence, cherry-picked (AID 652042).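 Note: potency for signal decrease meaning cytotoxicity.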 The assay is classed as functional, cell-based.
Assay [12] can be described thus: cells. It is filed as functional, cell-based.
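Throughout, for EC50: proteasome chymotrypsin-like activity measured in U2OS cells; potency is for inhibition of proteasome activity.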

Photoreceptor-specific nuclear receptor, sequence (Q9Y5X4 whole entry): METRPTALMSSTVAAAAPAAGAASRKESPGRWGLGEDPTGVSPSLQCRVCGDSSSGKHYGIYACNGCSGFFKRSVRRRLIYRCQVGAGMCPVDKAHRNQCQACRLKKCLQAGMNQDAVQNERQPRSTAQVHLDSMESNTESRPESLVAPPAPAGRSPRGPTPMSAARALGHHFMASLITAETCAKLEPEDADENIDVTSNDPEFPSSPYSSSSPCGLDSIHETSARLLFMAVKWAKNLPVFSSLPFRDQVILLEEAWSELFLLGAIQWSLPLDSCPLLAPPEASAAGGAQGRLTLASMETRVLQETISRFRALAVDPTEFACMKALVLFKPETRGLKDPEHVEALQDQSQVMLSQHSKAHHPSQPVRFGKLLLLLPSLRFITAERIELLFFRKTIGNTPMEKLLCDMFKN
Orexin receptor type 2, sequence (O43614 whole entry): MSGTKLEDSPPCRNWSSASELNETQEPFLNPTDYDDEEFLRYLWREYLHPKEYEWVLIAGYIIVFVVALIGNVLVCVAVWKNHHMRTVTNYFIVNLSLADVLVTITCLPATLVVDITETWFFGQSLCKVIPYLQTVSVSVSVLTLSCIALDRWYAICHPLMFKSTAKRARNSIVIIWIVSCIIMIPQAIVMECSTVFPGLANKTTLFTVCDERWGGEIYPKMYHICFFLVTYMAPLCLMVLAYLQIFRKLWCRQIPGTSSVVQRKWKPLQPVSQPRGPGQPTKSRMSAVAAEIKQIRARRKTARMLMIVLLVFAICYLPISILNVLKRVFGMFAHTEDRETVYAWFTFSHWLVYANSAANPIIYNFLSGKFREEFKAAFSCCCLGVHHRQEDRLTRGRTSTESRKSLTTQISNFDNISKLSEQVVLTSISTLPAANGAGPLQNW
Cyclin-dependent kinase 9, sequence (P50750 whole entry): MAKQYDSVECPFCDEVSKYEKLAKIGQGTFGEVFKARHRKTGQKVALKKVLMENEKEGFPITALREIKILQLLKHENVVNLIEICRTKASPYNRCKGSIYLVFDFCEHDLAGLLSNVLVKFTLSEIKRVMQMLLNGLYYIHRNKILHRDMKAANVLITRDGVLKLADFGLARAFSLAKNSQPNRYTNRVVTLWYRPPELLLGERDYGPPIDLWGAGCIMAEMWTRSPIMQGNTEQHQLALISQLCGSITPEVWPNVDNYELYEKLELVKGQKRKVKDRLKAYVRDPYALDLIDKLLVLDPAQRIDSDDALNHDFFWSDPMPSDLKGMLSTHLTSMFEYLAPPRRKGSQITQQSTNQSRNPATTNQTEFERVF
Sphingosine 1-phosphate receptor 1, sequence (P21453 whole entry): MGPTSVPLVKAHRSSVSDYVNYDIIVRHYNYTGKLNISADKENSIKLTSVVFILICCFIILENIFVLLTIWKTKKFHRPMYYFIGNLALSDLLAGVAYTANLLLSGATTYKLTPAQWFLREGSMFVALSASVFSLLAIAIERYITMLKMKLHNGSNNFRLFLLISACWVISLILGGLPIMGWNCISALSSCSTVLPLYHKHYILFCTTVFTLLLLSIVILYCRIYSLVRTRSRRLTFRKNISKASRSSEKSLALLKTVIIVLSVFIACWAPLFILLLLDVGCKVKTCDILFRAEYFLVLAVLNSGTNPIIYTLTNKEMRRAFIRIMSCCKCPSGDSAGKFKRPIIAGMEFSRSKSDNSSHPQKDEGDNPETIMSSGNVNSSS

In the case of `Cc1ccc(C(=O)OCn2ncc(Cl)c(Cl)c2=O)cc1`, the IC50 in assay [1] was 10.6 µM (not active); in assay [2], > 50 µM (inactive); in assay [4], 17.4 µM (inactive). In addition, the AC50 in assay [3] is 4.47 µM (active).

Regarding `O=C(O)CC(C(=O)O)N1C(=O)/C(=C/C=C/c2ccco2)SC1=S` (configuration not stated), the IC50 in assay [5] is 91.8 µM (active); in assay [6], > 39.8 µM (not active). Besides, in assay [7], the AC50 was 28.9 µM (active).

For the compound `O=C(Nc1cccc(C2Nc3ccc4ccccc4c3C3C=CCC32)c1)c1ccc(F)cc1` (configuration not stated), the results for the Ki in [8], in assay [9] and in [10] were 0.251 µM (active), > 3.16 µM (inactive) and > 6.31 µM (inactive), respectively.

Take `CCCC(=O)NC(c1cccs1)c1cc(Cl)c2cccnc2c1O` (configuration not stated): the AC50 in [11] was 25.1 µM (active). In addition, the EC50 in [12] is > 350 µM (not active).

What is called IC50 is the point on the concentration scale where inhibition reaches its midpoint. Usually AC50 stands for the concentration at which the activity in the assay is half-maximal. The Ki is a dissociation constant, usually derived from enzyme kinetics or from competition with a known ligand. As a reminder, the EC50 is the concentration that produces a half-maximal response. A low value points to a more potent agent.
